Experimental data taken from patent US20230139171A1 (SITA Information Networking Computing UK Limited, priority 2019, published 2023).

Key:
Type in all cases: cell-based
human TLR7 = target: T1, human TLR7 (Homo sapiens, UniProt Q9NYK1); assay: TLR7 inhibition reporter assay (HEK-Blue cells, SEAP reporter, gardiquimod stimulation); settings: HEK-Blue cells overexpressing human TLR7, SEAP reporter, gardiquimod 7.5 μM; read-out: TLR7 IC50
T1 construct: host or cells: HEK-Blue cells
T1 sequence (Q9NYK1 27-1049): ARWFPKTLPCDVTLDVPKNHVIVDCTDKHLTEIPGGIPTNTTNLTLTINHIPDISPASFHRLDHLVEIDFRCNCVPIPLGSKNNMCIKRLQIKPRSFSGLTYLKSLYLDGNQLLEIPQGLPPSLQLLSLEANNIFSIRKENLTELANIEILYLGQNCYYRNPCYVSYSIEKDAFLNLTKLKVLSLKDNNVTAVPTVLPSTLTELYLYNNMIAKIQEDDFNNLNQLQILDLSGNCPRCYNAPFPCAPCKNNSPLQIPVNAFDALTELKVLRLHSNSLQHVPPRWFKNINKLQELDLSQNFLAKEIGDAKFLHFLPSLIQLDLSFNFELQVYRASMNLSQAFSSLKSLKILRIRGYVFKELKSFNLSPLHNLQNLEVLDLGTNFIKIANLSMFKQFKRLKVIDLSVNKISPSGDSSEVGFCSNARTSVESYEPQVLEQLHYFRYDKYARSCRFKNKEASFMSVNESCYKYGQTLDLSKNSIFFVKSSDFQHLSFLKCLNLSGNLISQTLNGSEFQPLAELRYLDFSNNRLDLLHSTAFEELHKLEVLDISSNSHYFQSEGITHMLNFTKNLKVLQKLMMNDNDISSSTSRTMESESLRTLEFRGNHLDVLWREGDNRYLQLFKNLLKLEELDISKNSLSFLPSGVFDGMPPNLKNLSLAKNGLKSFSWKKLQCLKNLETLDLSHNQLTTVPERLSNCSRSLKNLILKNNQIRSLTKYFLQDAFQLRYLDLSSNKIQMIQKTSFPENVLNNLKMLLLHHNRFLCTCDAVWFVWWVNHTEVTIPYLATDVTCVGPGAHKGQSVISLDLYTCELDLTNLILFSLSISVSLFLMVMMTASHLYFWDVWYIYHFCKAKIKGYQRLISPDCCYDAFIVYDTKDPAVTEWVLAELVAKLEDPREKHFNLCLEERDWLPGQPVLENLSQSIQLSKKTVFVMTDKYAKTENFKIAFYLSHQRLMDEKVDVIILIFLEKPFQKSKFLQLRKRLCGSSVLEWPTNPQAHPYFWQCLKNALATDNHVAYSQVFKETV
Procedure, shortened: (§1)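 Dose–response from 0.05 nM to 50 μM was run in HEK-Blue human TLR7, TLR8 and TLR9 reporter cells. After 30 min at room temperature with compound, ligand was added (TLR7 gardiquimod 7.5 μM; TLR8 R848 15.9 μM; TLR9 ODN2006 5 nM) and SEAP measured next day, at 22 h.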

human TLR8 = target: T2, human TLR8 (Homo sapiens, UniProt Q9NR97); assay: TLR8 inhibition reporter assay (HEK-Blue cells, SEAP reporter, R848 stimulation); settings: HEK-Blue cells overexpressing human TLR8, SEAP reporter, R848 15.9 μM; read-out: TLR8 IC50
T2 construct: host or cells: HEK-Blue cells
T2 sequence (Q9NR97 27-1041): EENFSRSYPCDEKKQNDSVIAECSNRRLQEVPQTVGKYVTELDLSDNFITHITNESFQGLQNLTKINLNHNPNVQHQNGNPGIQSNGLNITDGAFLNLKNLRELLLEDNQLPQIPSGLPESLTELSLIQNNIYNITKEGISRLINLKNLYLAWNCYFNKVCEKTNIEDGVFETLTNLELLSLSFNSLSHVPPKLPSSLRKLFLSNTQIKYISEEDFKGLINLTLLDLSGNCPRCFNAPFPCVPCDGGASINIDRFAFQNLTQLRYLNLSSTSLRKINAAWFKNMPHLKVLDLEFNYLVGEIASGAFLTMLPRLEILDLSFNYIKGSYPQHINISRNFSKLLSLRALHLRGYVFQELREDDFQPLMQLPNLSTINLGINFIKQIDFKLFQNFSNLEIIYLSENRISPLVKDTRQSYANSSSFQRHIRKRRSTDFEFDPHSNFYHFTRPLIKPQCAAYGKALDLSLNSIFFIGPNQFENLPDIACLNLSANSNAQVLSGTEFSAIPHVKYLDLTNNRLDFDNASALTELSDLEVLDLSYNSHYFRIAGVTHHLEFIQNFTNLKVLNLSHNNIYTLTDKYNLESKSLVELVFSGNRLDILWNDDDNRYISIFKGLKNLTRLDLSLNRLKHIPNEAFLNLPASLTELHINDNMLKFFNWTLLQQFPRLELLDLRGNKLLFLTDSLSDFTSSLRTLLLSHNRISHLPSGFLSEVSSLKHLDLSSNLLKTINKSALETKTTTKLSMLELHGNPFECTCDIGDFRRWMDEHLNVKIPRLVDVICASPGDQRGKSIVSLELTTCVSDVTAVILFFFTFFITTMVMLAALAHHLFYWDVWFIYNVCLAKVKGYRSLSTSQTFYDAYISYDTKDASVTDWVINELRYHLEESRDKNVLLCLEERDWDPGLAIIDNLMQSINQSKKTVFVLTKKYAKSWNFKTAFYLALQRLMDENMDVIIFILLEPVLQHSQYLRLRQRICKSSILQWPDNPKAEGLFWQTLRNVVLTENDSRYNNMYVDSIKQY
Procedure, shortened: as §1

human TLR9 = target: T3, human TLR9 (Homo sapiens, UniProt Q9NR96); assay: TLR9 inhibition reporter assay (HEK-Blue cells, SEAP reporter, ODN2006 stimulation); settings: HEK-Blue cells overexpressing human TLR9, SEAP reporter, ODN2006 5 nM
T3 construct: host or cells: HEK-Blue cells
T3 sequence (Q9NR96 26-1032): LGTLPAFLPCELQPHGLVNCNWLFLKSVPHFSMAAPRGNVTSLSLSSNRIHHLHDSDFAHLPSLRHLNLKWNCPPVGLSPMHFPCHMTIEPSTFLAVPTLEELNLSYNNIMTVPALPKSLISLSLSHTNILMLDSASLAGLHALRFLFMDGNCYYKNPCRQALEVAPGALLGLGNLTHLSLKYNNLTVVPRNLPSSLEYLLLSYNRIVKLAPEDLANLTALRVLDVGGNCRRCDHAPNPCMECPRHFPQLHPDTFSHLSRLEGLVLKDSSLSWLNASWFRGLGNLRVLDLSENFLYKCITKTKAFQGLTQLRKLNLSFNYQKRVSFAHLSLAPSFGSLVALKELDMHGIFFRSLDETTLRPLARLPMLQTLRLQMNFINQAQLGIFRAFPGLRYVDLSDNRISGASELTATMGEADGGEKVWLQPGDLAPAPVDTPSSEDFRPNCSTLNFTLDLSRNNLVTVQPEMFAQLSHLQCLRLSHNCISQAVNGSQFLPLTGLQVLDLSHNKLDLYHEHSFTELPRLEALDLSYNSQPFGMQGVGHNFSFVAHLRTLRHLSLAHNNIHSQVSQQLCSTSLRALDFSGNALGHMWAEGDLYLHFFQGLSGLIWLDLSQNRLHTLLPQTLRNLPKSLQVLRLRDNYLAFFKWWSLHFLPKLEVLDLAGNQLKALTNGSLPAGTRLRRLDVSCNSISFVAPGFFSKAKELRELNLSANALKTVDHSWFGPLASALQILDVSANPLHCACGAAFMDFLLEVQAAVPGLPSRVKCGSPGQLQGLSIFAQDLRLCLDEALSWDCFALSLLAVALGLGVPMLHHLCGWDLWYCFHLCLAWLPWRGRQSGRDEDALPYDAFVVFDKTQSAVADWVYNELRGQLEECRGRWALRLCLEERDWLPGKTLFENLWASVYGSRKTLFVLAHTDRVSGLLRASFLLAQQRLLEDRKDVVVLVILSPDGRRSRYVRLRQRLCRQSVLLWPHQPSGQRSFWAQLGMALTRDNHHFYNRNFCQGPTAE
Procedure, shortened: as §1

Row | SMILES | IC50 (human TLR7) | IC50 (human TLR8) | IC50 (human TLR9)
1 | Cc1cc(-c2[nH]c3sc(C4CCN(CC(C)(C)O)CC4)nc3c2C(C)C)cn2ncnc12 [Example 18, 1-(4-(6-isopropyl-5-(8-methyl-[1,2,4]triazolo[1,5-a]pyridin-6-yl)-4H-pyrrolo[3,2-d]thiazol-2-yl)piperidin-1-yl)-2-methylpropan-2-ol] | 5.69 nM | 2.57 nM | 3740 nM
2 | Cc1cc(-c2[nH]c3sc(C4CCN(C(=O)CN(C)C)CC4)nc3c2C(C)C)cn2ncnc12 [Example 19, 2-(dimethylamino)-1-(4-(6-isopropyl-5-(8-methyl-[1,2,4]triazolo[1,5-a]pyridin-6-yl)-4H-pyrrolo[3,2-d]thiazol-2-yl)piperidin-1-yl)ethan-1-one] | 1.4 nM | 12 nM | 5940 nM
3 | Cc1cc(-c2[nH]c3sc(C4CCN(C5COC5)CC4)nc3c2C(C)C)cn2ncnc12 [Example 20, 6-isopropyl-5-(8-methyl-[1,2,4]triazolo[1,5-a]pyridin-6-yl)-2-(1-(oxetan-3-yl)piperidin-4-yl)-4H-pyrrolo[3,2-d]thiazole] | 3.69 nM | 8.06 nM | 16100 nM
4 | Cc1cc(-c2[nH]c3sc(C4CCN(C(C)C)CC4)nc3c2C(C)C)cn2ncnc12 [Example 21, 6-isopropyl-2-(1-isopropylpiperidin-4-yl)-5-(8-methyl-[1,2,4]triazolo[1,5-a]pyridin-6-yl)-4H-pyrrolo[3,2-d]thiazole] | 6.89 nM | 39 nM | > 50000 nM
5 | Cc1cc(-c2[nH]c3sc(C4CCN(C5CCOCC5)CC4)nc3c2C(C)C)cn2ncnc12 [Example 22, 6-isopropyl-5-(8-methyl-[1,2,4]triazolo[1,5-a]pyridin-6-yl)-2-(1-(tetrahydro-2H-pyran-4-yl)piperidin-4-yl)-4H-pyrrolo[3,2-d]thiazole] | 1.23 nM | 0.9 nM | 4850 nM
6 | Cc1cc(-c2[nH]c3sc(C4CCN(CC5(C)COC5)CC4)nc3c2C(C)C)cn2ncnc12 [Example 23, 6-isopropyl-5-(8-methyl-[1,2,4]triazolo[1,5-a]pyridin-6-yl)-2-(1-((3-methyloxetan-3-yl)methyl)piperidin-4-yl)-4H-pyrrolo[3,2-d]thiazole] | 1.27 nM | 1.01 nM | 4770 nM
7 | Cc1cc(-c2[nH]c3sc(C4CCN(CC(=O)N(C)C)CC4)nc3c2C(C)C)cc(C)n1 [Example 24, 2-(4-(5-(2,6-dimethylpyridin-4-yl)-6-isopropyl-4H-pyrrolo[3,2-d]thiazol-2-yl)piperidin-1-yl)-N,N-dimethylacetamide] | 43.4 nM | 12.5 nM | 793 nM
8 | Cc1cc(-c2[nH]c3sc(C4CCN(C(C)C)CC4)nc3c2C(C)C)cc(C)n1 [Example 25, 5-(2,6-dimethylpyridin-4-yl)-6-isopropyl-2-(1-isopropylpiperidin-4-yl)-4H-pyrrolo[3,2-d]thiazole] | 25.6 nM | 10.3 nM | 447 nM
9 | Cc1cc(-c2[nH]c3sc(C4CCN(C5CCOCC5)CC4)nc3c2C(C)C)cc(C)n1 [Example 26, 5-(2,6-dimethylpyridin-4-yl)-6-isopropyl-2-(1-(tetrahydro-2H-pyran-4-yl)piperidin-4-yl)-4H-pyrrolo[3,2-d]thiazole] | 442 nM | 413 nM | 7210 nM
10 | Cc1cc(-c2[nH]c3sc(C4CCN(CC5(C)COC5)CC4)nc3c2C(C)C)cc(C)n1 [Example 27, 5-(2,6-dimethylpyridin-4-yl)-6-isopropyl-2-(1-((3-methyloxetan-3-yl)methyl)piperidin-4-yl)-4H-pyrrolo[3,2-d]thiazole] | 29.7 nM | 2.87 nM | 388 nM
11 | Cc1cc(-c2[nH]c3sc(C4CCN(C(=O)CN(C)C)CC4)nc3c2C(C)C)cc(C)n1 [Example 28, 2-(dimethylamino)-1-(4-(5-(2,6-dimethylpyridin-4-yl)-6-isopropyl-4H-pyrrolo[3,2-d]thiazol-2-yl)piperidin-1-yl)ethan-1-one] | 39 nM | 265 nM | 645 nM
12 | Cc1cc(-c2[nH]c3sc(C4CCN(CC(C)(C)O)CC4)nc3c2C(C)C)cc(C)n1 [Example 29, 1-(4-(5-(2,6-dimethylpyridin-4-yl)-6-isopropyl-4H-pyrrolo[3,2-d]thiazol-2-yl)piperidin-1-yl)-2-methylpropan-2-ol] | 18.4 nM | 1.91 nM | 216 nM
13 | CC(C)c1c(-c2cn(C)c3ncccc23)[nH]c2sc(C3CCN(CC(=O)N(C)C)CC3)nc12 [Example 30, 2-(4-(6-isopropyl-5-(1-methyl-1H-pyrrolo[2,3-b]pyridin-3-yl)-4H-pyrrolo[3,2-d]thiazol-2-yl)piperidin-1-yl)-N,N-dimethylacetamide] | 4.37 nM | 2.07 nM | 14800 nM
